Measured values reported in PubChem BioAssay (NCI).
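Each compound was tested at five concentrations against cells in 96-well plates for 48 hours. TGI marks complete inhibition of growth.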

What was measured:
Assay in all cases: DTP human tumour cell line panel, 48 h
[1] = test system: 786-0 renal
[2] = test system: A549 NSCLC
[3] = test system: ACHN renal
[4] = test system: BT-549 breast
[5] = test system: CAKI-1 renal
[6] = test system: CCRF-CEM leukemia
[7] = test system: COLO 205 colon
[8] = test system: DU-145 prostate
[9] = test system: EKVX NSCLC
[10] = test system: HCC-2998 colon
[11] = test system: HCT-116 colon
[12] = test system: HCT-15 colon
[13] = test system: HOP-62 NSCLC
[14] = test system: HOP-92 NSCLC
[15] = test system: HT29 colon
[16] = test system: IGROV1 ovarian
[17] = test system: K-562 leukemia
[18] = test system: KM12 colon
[19] = test system: LOX IMVI melanoma
[20] = test system: M14 melanoma
[21] = test system: MALME-3M melanoma
[22] = test system: MCF7 breast
[23] = test system: MDA-MB-231 breast
[24] = test system: MDA-MB-435
[25] = test system: MDA-N
[26] = test system: MOLT-4 leukemia
[27] = test system: NCI-H226 lung
[28] = test system: NCI-H23 lung
[29] = test system: NCI-H460 lung
[30] = test system: NCI-H522 lung
[31] = test system: NCI/ADR-RES ovarian
[32] = test system: OVCAR-3 ovarian
[33] = test system: OVCAR-4 ovarian
[34] = test system: OVCAR-5 ovarian
[35] = test system: OVCAR-8 ovarian
[36] = test system: PC-3 prostate
[37] = test system: RPMI-8226 leukemia
[38] = test system: RXF 393 renal
[39] = test system: SF-295 CNS
[40] = test system: SF-539 CNS
[41] = test system: SK-MEL-2 melanoma
[42] = test system: SK-MEL-28 melanoma
[43] = test system: SK-MEL-5 melanoma
[44] = test system: SK-OV-3 ovarian
[45] = test system: SN12C renal
[46] = test system: SNB-19 CNS
[47] = test system: SNB-75 CNS
[48] = test system: SR leukemia
[49] = test system: SW-620 colon
[50] = test system: T-47D breast
[51] = test system: TK-10 renal
[52] = test system: U251 CNS
[53] = test system: UACC-257 melanoma
[54] = test system: UACC-62 melanoma
[55] = test system: UO-31 renal
[56] = test system: HL-60(TB) leukemia
[57] = test system: HS 578T breast
[58] = test system: SF-268 CNS
[59] = test system: A498 renal

For N#CCCN(C(=O)Nc1ccccc1)[C@H]1CCCC[C@@H]1N(C(=O)Nc1ccccc1)c1ccccc1, the TGI [1] was > 100 µM, the TGI [2] was > 100 µM and the TGI [3] was > 100 µM. The TGI [4] was > 100 µM, the TGI [5] was > 100 µM and the TGI [6] was > 100 µM. For the same compound, the TGI [7] was > 100 µM, the TGI [8] was > 100 µM and the TGI [9] was > 100 µM. For the same compound, the TGI [10] was > 100 µM, the TGI [11] was > 100 µM and the TGI [12] was > 100 µM. For the same compound, the TGI [13] was > 100 µM, the TGI [14] was > 100 µM and the TGI [15] was > 100 µM. The TGI [16] was > 100 µM, the TGI [17] was > 100 µM and the TGI [18] was > 100 µM. The TGI [19] was > 100 µM, the TGI [20] was > 100 µM and the TGI [21] was > 100 µM. For the same compound, the TGI [22] was > 100 µM, the TGI [23] was > 100 µM and the TGI [24] was > 100 µM. For the same compound, the TGI [25] was > 100 µM, the TGI [26] was > 100 µM and the TGI [27] was > 100 µM. The TGI [28] was > 100 µM, the TGI [29] was > 100 µM and the TGI [30] was > 100 µM. The TGI [31] was > 100 µM, the TGI [32] was > 100 µM and the TGI [33] was > 100 µM. For the same compound, the TGI [34] was > 100 µM, the TGI [35] was > 100 µM and the TGI [36] was > 100 µM. For the same compound, the TGI [37] was > 100 µM, the TGI [38] was > 100 µM and the TGI [39] was > 100 µM. The TGI [40] was > 100 µM, the TGI [41] was > 100 µM and the TGI [42] was > 100 µM. The TGI [43] was > 100 µM, the TGI [44] was > 100 µM and the TGI [45] was > 100 µM. The TGI [46] was > 100 µM, the TGI [47] was > 100 µM and the TGI [48] was > 100 µM. For the same compound, the TGI [49] was > 100 µM, the TGI [50] was > 100 µM and the TGI [51] was > 100 µM. For the same compound, the TGI [52] was > 100 µM, the TGI [53] was > 100 µM and the TGI [54] was > 100 µM. The TGI [55] was > 100 µM.

CCCC(=O)Nc1cc2c3c(c1)CCCN3CCC2 was tested, and the TGI [1] was > 10 µM, the TGI [2] was > 10 µM and the TGI [3] was > 10 µM. For the same compound, the TGI [4] was > 10 µM, the TGI [5] was > 10 µM and the TGI [6] was > 10 µM. For the same compound, the TGI [7] was > 10 µM, the TGI [8] was > 10 µM and the TGI [10] was > 10 µM. The TGI [11] was > 10 µM, the TGI [12] was > 10 µM and the TGI [56] was > 10 µM. The TGI [13] was > 10 µM, the TGI [14] was > 10 µM and the TGI [57] was > 10 µM. The TGI [15] was > 10 µM, the TGI [16] was > 10 µM and the TGI [17] was > 10 µM. For the same compound, the TGI [18] was > 10 µM, the TGI [19] was > 10 µM and the TGI [20] was > 10 µM. For the same compound, the TGI [21] was > 10 µM, the TGI [22] was > 10 µM and the TGI [23] was > 10 µM. The TGI [24] was > 10 µM, the TGI [25] was > 10 µM and the TGI [28] was > 10 µM. For the same compound, the TGI [30] was > 10 µM, the TGI [31] was > 10 µM and the TGI [32] was > 10 µM. The TGI [33] was > 10 µM, the TGI [34] was > 10 µM and the TGI [35] was > 10 µM. The TGI [36] was > 10 µM, the TGI [37] was > 10 µM and the TGI [58] was > 10 µM. The TGI [39] was > 10 µM, the TGI [40] was > 10 µM and the TGI [42] was > 10 µM. For the same compound, the TGI [43] was > 10 µM, the TGI [44] was > 10 µM and the TGI [45] was > 10 µM. The TGI [46] was > 10 µM, the TGI [47] was > 10 µM and the TGI [48] was > 10 µM. The TGI [49] was > 10 µM, the TGI [50] was > 10 µM and the TGI [51] was > 10 µM. For the same compound, the TGI [52] was > 10 µM, the TGI [53] was > 10 µM and the TGI [54] was > 10 µM.

CC(C)(C)OC(=O)[C@H]1CCC(=S)N1Cc1ccccc1 was tested, and the TGI [1] was > 100 µM, the TGI [59] was > 100 µM and the TGI [2] was > 100 µM. The TGI [3] was > 100 µM, the TGI [5] was > 100 µM and the TGI [6] was > 100 µM. The TGI [7] was > 100 µM, the TGI [8] was > 100 µM and the TGI [9] was > 100 µM. For the same compound, the TGI [10] was > 100 µM, the TGI [11] was > 100 µM and the TGI [12] was > 100 µM. The TGI [56] was > 100 µM, the TGI [14] was > 100 µM and the TGI [16] was > 100 µM. The TGI [18] was > 100 µM, the TGI [19] was > 100 µM and the TGI [20] was > 100 µM. The TGI [21] was > 100 µM, the TGI [22] was > 100 µM and the TGI [23] was > 100 µM. For the same compound, the TGI [24] was > 100 µM, the TGI [25] was > 100 µM and the TGI [26] was > 100 µM. The TGI [27] was > 100 µM, the TGI [28] was > 100 µM and the TGI [29] was > 100 µM. The TGI [30] was > 100 µM, the TGI [31] was > 100 µM and the TGI [32] was > 100 µM. For the same compound, the TGI [33] was > 100 µM, the TGI [34] was > 100 µM and the TGI [35] was > 100 µM. For the same compound, the TGI [36] was > 100 µM, the TGI [37] was > 100 µM and the TGI [38] was > 100 µM. The TGI [39] was > 100 µM, the TGI [40] was > 100 µM and the TGI [41] was > 100 µM. The TGI [42] was > 100 µM, the TGI [43] was > 100 µM and the TGI [44] was > 100 µM. For the same compound, the TGI [45] was > 100 µM, the TGI [46] was > 100 µM and the TGI [47] was > 100 µM. For the same compound, the TGI [48] was > 100 µM, the TGI [49] was > 100 µM and the TGI [51] was > 100 µM. The TGI [52] was > 100 µM, the TGI [53] was > 100 µM and the TGI [54] was > 100 µM. For the same compound, the TGI [55] was > 100 µM.

O=C(c1ccccc1Br)C(F)(F)F was tested, and the TGI [1] was > 100 µM, the TGI [59] was > 100 µM and the TGI [2] was > 100 µM. For the same compound, the TGI [3] was > 100 µM, the TGI [4] was > 100 µM and the TGI [5] was > 100 µM. The TGI [6] was > 100 µM, the TGI [7] was > 100 µM and the TGI [8] was > 100 µM. For the same compound, the TGI [9] was > 100 µM, the TGI [10] was > 100 µM and the TGI [11] was > 100 µM. For the same compound, the TGI [12] was > 100 µM, the TGI [56] was > 100 µM and the TGI [13] was > 100 µM. For the same compound, the TGI [57] was > 100 µM, the TGI [15] was > 100 µM and the TGI [16] was > 100 µM. For the same compound, the TGI [17] was > 100 µM, the TGI [18] was > 100 µM and the TGI [19] was > 100 µM. For the same compound, the TGI [20] was > 100 µM, the TGI [21] was > 100 µM and the TGI [22] was > 100 µM. For the same compound, the TGI [23] was > 100 µM, the TGI [24] was > 100 µM and the TGI [25] was > 100 µM. For the same compound, the TGI [26] was > 100 µM, the TGI [27] was > 100 µM and the TGI [28] was > 100 µM. The TGI [29] was > 100 µM, the TGI [30] was > 100 µM and the TGI [31] was > 100 µM. The TGI [32] was > 100 µM, the TGI [33] was > 100 µM and the TGI [34] was > 100 µM. For the same compound, the TGI [35] was > 100 µM, the TGI [36] was > 100 µM and the TGI [37] was > 100 µM. The TGI [58] was > 100 µM, the TGI [39] was > 100 µM and the TGI [40] was > 100 µM. The TGI [42] was > 100 µM, the TGI [43] was > 100 µM and the TGI [44] was > 100 µM. For the same compound, the TGI [45] was > 100 µM, the TGI [46] was > 100 µM and the TGI [47] was > 100 µM. The TGI [48] was > 100 µM, the TGI [49] was > 100 µM and the TGI [50] was > 100 µM. For the same compound, the TGI [51] was > 100 µM, the TGI [52] was > 100 µM and the TGI [54] was > 100 µM. The TGI [55] was > 100 µM.
